What was measured:
[1] = target: T1, human sex Hormone Binding Globulin (SHBG) (Homo sapiens, UniProt P04278); assay: Competitive steroid-binding assay for SHBG; conditions: comparison among tested steroids; order ethinylestradiol, 17β-estradiol, testosterone, 5α-dihydrotestosterone
T1 construct: made in house; host or cells: transgenic mouse (serum)
T1 sequence (P04278 30-402): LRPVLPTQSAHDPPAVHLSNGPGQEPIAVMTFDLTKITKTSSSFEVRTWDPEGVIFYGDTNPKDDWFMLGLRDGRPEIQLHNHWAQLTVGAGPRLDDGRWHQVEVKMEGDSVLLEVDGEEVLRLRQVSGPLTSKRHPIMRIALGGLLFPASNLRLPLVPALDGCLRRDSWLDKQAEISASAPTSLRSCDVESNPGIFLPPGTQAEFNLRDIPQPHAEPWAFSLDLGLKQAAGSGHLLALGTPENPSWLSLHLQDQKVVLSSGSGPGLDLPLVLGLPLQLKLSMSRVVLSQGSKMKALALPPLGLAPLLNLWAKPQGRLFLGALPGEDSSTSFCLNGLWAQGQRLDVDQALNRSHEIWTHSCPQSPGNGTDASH
Description: Human SHBG was treated for 30 min at room temperature with a dextran-coated charcoal (DCC) suspension in phosphate buffered saline (PBS) to remove any steroid ligand. After centrifugation (2,000×g for 10 min) to sediment the DCC, the supernatant containing the human SHBG was diluted in PBS to a concentration of 1 nM based on its steroid binding capacity.
The average amounts of [^3H]labeled ligands bound to SHBG at each concentration of competitor (B) were expressed as a percentage of the average amounts of [^3H]labeled ligands bound to SHBG in the absence of competitor (B0), and were plotted against the concentration of competitor in each assay tube.

[2] = test system: AP-1 site in the presence of ERα; conditions: Paech et al. 1997; cited from earlier work
[3] = test system: AP-1 site in the presence of ERβ; conditions: in the presence of / through ERβ, Paech et al. 1997; cited from earlier work
[4] = test system: castrated mice with experimental autoimmune encephalomyelitis (EAE); conditions: amount inducing serum levels of late stage pregnancy, Jansson et al. 1998; cited from earlier work
[5] = elimination from the blood; cited from earlier work
[6] = test system: male DBA/1 mice with collagen induced arthritis (CIA); assay: Collagen induced arthritis (CIA) in male DBA/1 mice, oral treatment; format: in vivo, mouse; conditions: 1 mg/kg
Description: The ability of estetrol to alleviate the severity of immune mediated disorders and its possible side-effects were evaluated and compared with dexamethasone in mice developing collagen induced arthritis (CIA), which is another experimental system of autoimmune and chronic inflammatory disease, representing human arthritic diseases, particularly rheumatoid arthritis (RA).
Arthritis was induced in male DBA/1 mice using a two-step immunization protocol (Joosten et al., “Dual role of IL-12 in early and late stages of murine collagen type II arthritis”. J Immunol 1997; 159:4094-4102; Joosten et al., “IL-1β blockade prevents cartilage and bone destruction in murine type II collagen-induced arthritis, whereas TNFα blockade only ameliorates joint inflammation”. J Immunol 1999; 163:5049-55). This strain is highly susceptible to CIA induced with bovine type II collagen. On day 0, mice were immunized with bovine type II collagen (100 μg) emulsified in Freund's complete adjuvant (four subcutaneous injections in the back). On day 21, mice were boosted with an i.p. injection of 100 μg collagen type II diluted in PBS.
The effect of oral treatment with estetrol on collagen-induced arthritis was studied in a 6-week study design. From day 22 until the end of the study (day 42), the animals were treated once daily with vehicle (hydroxypropyl-beta-cyclodextrin in a 20% wt/vol solution in water) serving as negative control or four different dosages of estetrol (3 mg/kg, 1 mg/kg, 0.3 mg/kg and 0.1 mg/kg). Dexamethasone (1 mg/kg), was chosen as a positive control because it is a well studied corticosteroid that reduces swelling and inflammation and is used in a variety of disorders such as skin diseases (psoriasis, hives), allergic conditions, breathing problems, cancer, blood disorders (anemia), digestive problems, eye disorders and for the treatment of arthritis. Although effective as an anti-inflammatory agent, dexamethasone is also known to induce a number of side effects, which amongst others include in humans the induction of osteoporosis, reduced adrenal function, dizziness, nausea, indigestion, increased appetite, weight gain due to enhanced water retention, weakness and/or sleep disturbances. In addition, systemic dexamethasone treatment in rodents results in strong catabolic effects that can be easily observed as weight loss (Orzechowski et al. 2002, “Rats with a glucocorticoid-induced catabolic state show symptoms of oxidative stress and spleen atrophy: the effects of age and recovery”. J Vet Med A Physiol Pathol Clin Med; 49:256-63).
All groups used in the study consisted of 13 mice. During the study animals were weighed and monitored for clinical signs of arthritis. Scoring of disease severity (clinical arthritis score) was performed according to scoring system described by Joosten et al. 1997 (J. Immunol., 159:4094-4102) and Joosten et al. 1999 (J. Immunol., 163:5049-55).
Basic statistical analyses were performed as follows: The significance of differences between all treatment groups in the main clinical outcome parameters was tested using analysis of variance (ANOVA). Each significant ANOVA was followed by post hoc Tukey tests to determine the significance of the difference between each treatment group and the control group. Furthermore, linear regression analysis was used to study the dose-dependency of the effects of treatment with estetrol. All statistical analysis were performed using statistical software program SPSS 10.0 for Windows (SPSS Inc., Chicago, Ill., USA).

**Q.** Which “relative binding affinity for human SHBG” value [1] does the source give for `C[C@]12CCC(=O)C[C@@H]1CC[C@@H]1[C@@H]2CC[C@]2(C)[C@@H](O)CC[C@@H]12` [5α-dihydrotestosterone, reference compound] here?
**A.** The value was “in this order, show an increased relative binding affinity for human SHBG”.

**Q.** With `C[C@]12CC[C@@H]3c4ccc(O)cc4C[C@@H](CCCCCCCCC[S+]([O-])CCCC(F)(F)C(F)(F)F)[C@H]3[C@@H]1CC[C@@H]2O` (stereo partly shown) [ICI-182,780] as the molecule, how does the “effect on AP-1 site” value [2] read?
**A.** The value was “inhibit”.

**Q.** And the “effect on AP-1 site” value [3]?
**A.** The value was “stimulate”.

**Q.** With `C[C@]12CC[C@@H]3c4ccc(O)cc4CC[C@H]3[C@@H]1CC[C@@H]2O` [E2, 17β-estradiol] as the molecule, how does the “onset of experimental autoimmune encephalomyelitis (EAE)” value [4] read?
**A.** The value was “delays the onset”.

**Q.** What about the half-life [5] of the same molecule?
**A.** Its half-life is “around 1 hour”.

**Q.** And the “effect on AP-1 site” value [2]?
**A.** The value was “activates”.

**Q.** And the “effect on AP-1 site” value [3]?
**A.** Its value is “inhibits”.

**Q.** Which results are given for `O=C(c1ccc(OCCN2CCCCC2)cc1)c1c(-c2ccc(O)cc2)sc2cc(O)ccc12` [raloxifene]?
**A.** effect on AP-1 site [2]: inhibit; effect on AP-1 site [3]: stimulate

**Q.** With `C[C@]12CC[C@@H]3c4ccc(O)cc4CC[C@H]3[C@@H]1C[C@@H](O)[C@@H]2O` [estriol] as the molecule, how does the “onset of experimental autoimmune encephalomyelitis (EAE)” value [4] read?
**A.** Its value is “delays the onset”.

**Q.** With `CC/C(=C(\c1ccccc1)c1ccc(OCCN(C)C)cc1)c1ccccc1` [tamoxifen] as the molecule, how does the “effect on AP-1 site” value [2] read?
**A.** The value was “inhibit”.

**Q.** What about the “effect on AP-1 site” value [3] of the same molecule?
**A.** Its value is “stimulate”.

**Q.** Which results are given for `C[C@@H]1C[C@H]2[C@@H]3CCC4=CC(=O)C=C[C@]4(C)[C@@]3(F)[C@@H](O)C[C@]2(C)[C@@]1(O)C(=O)CO` [dexamethasone, reference compound]?
**A.** average cumulative arthritis score ([6]; day 21 to 42, vehicle 31.4±1.73): 0; body weight, % of initial weight (day 21) ([6]; day 28): 91.5%; body weight, % of initial weight (day 21) ([6]; day 35): 91.4%; body weight, % of initial weight (day 21) ([6]; day 42): 94.0%; macroscopic arthritis score ([6]; until day 42, vehicle 5.90±0.38 on day 42): 0; disease incidence (arthritis) ([6]; up to day 42): 0%

**Q.** With `C[C@]12CC[C@H]3[C@@H](CCC4=CC(=O)CC[C@@]43C)[C@@H]1CC[C@@H]2O` [testosterone, reference compound] as the molecule, how does the “relative binding affinity for human SHBG” value [1] read?
**A.** The value was “in this order, show an increased relative binding affinity for human SHBG”.
